Earlier results, collected in patent US20100022576A1 (priority 2006, published 2010).

Assays:
human mast cells = conditions: in vitro
[1] = in vivo

Clc1ccc2c(c1)CCc1cccnc1C2=C1CCNCC1 [desloratadine]
Release of histamine from human mast cells (human mast cells): inhibits release of histamine from human mast cells
Effect of food and grapefruit juice on bioavailability [1]: Neither food nor grapefruit juice has an effect
